# Assay results as given in US11938137B2, “Lipid prodrugs of mycophenolic acid and uses thereof” (PureTech LYT, Inc., priority 2017, dated 2024).
# Test: Lymphatic transport assay in mesenteric lymph-duct cannulated rats
# Assay type: in vivo, rat
# Details: as E2 but dose 1 mg/rat; class symbols
# Protocol: In order to assess the lymphatic transport of disclosed lipid prodrugs in rats, the mesenteric lymph ducts of the rats used in this study were cannulated to allow continual collection of mesenteric lymph. Lipid formulations containing the compound of interest were then administered to the animals, lymph was collected, and drug concentrations in the lymph samples were quantified.
# Lipid-based formulations of the compounds of the invention or control compounds were prepared as previously described (Trevaskis, N. L. et al., Pharmaceutical Research, 2005, 22(11), 1863-1870, WO 2016/023082, and WO 2017/041139, hereby incorporated by reference.
# In brief, either 1 or 2 mg of test prodrug, 40 mg oleic acid and 25 mg Tween 80 were mixed in a glass vial and incubated at 37° C. for 12-18 h to equilibrate. An aqueous phase consisting of 5.6 ml phosphate buffered saline (PBS, pH 7.4) was subsequently added to the lipid phase (MPA was dissolved in PBS for the preparation of MPA containing formulations) and the formulation emulsified by ultrasonication with a Misonix XL 2020 ultrasonic processor (Misonix, Farmingdale, NY, USA) equipped with a 3.2-mm microprobe tip running at 30% of the maximal amplitude of 240 μm and a frequency of 20 kHz for 2 min at room temperature. Doses for administering to more than one animal can be prepared in one batch by suitably increasing the quantities given above. Drug/prodrug concentrations in all formulations were verified using HPLC-MS.
# Male Sprague-Dawley (SD) rats were selected for the lymphatic transport studies. Rats (typically 240-320 g) were maintained on a standard diet and fasted overnight with free access to water prior to experiments.
# Anesthetized rats were placed on a heated pad at 37° C. and cannulas inserted into the duodenum (for formulation administration and rehydration), mesenteric lymph duct (for lymph collection), and carotid artery (in cases where blood collection was conducted). Post-surgery, rats were re-hydrated for 0.5 h via intraduodenal infusion of normal saline at 2.8 mL/h. The lipid formulations were infused into the duodenum at 2.8 mL/h for 2 h after which, normal saline was infused at 2.8 mL/h for the remainder of the experiment. Lymph was continuously collected for up to 8 h into pre-weighed Eppendorf tubes containing 10 μL of 1,000 IU/mL heparin. The collection tubes were changed hourly and lymph flow was measured gravimetrically. Aliquots of hourly lymph samples were stored at −20° C. prior to assay.
# Drug concentration in lymph is expressed as total drug and includes free drug and drug associated with different glycerides. Lymph samples are first treated with a lipase or other appropriate conditions to liberate free active agent prior to measurement of active agent levels in the lymph. Treatment with a lipase or other hydrolysis conditions liberates free active agent from any corresponding re-esterified glycerides. Porcine pancreatic lipase is appropriate for this purpose. Alternatively, hydrolysis with 0.5 M NaOH may be used. For MPA “phenol” prodrugs (i.e. prodrugs linked to the triglyceride at the aromatic —OH group of MPA), hydrolysis was performed with 0.5 M NaOH except for the lymph samples collected from 3 rats in the group of compound I-20 (MPA-O-C12α′βMe-TG), which were hydrolyzed by porcine pancreatic lipase.
# Transport of compounds into lymph during each hourly collection period was calculated from the product of the volume of lymph collected and the measured concentrations in lymph. For fluorescently-labelled compounds such as a BDP-conjugate, the concentrations of total compound may be measured by fluorescence spectroscopy without hydrolysis.
# The results of the lymphatic transport assays are summarized in Table 2, below, and FIGS. 1-19. Table 2 summarizes lymphatic transport of total MPA related compound (% of administered dose) following intraduodenal infusion to anaesthetised, mesenteric lymph-duct cannulated rats. […]
row,"Cumulative lymphatic transport % dose (Mean ± SD, or Range if n = 2)",SMILES
1,A (greater than 10% (>10%)),"CCCCCCCCCCCCCCCC(=O)OCC(COC(=O)CCCCCCCCCCCCCCC)OC(=O)CCCCCCCCCCCOC(=O)CC/C(C)=C/Cc1c(O)c2c(c(C)c1OC)COC2=O [I-37, (E)-2-((12-((6-(4-hydroxy-6-methoxy-7-methyl-3-oxo-1,3-dihydroisobenzofuran-5-yl)-4-methylhex-4-enoyl)oxy)dodecanoyl)oxy)propane-1,3-diyl dipalmitate]"
2,B (between 1% and 10% (1%-10%)),"CCCCCCCCCCCCCCCC(=O)OCC(COC(=O)CCCCCCCCCCCCCCC)OC(=O)CCCCCCCCCCCCCCCCCOC(=O)CC/C(C)=C/Cc1c(O)c2c(c(C)c1OC)COC2=O [I-38, (E)-2-((18-((6-(4-hydroxy-6-methoxy-7-methyl-3-oxo-1,3-dihydroisobenzofuran-5-yl)-4-methylhex-4-enoyl)oxy)octadecanoyl)oxy)propane-1,3-diyl dipalmitate]"

# Same assay, conditions: total MPA related compound, intraduodenal infusion, anesthetised mesenteric lymph-duct cannulated rats; class symbols
row,SMILES,"Cumulative lymphatic transport % dose (Mean ± SD, or Range if n = 2)"
1,"CCCCCCCCCCCCCCCC(=O)OCC(COC(=O)CCCCCCCCCCCCCCC)OC(=O)CC(C)CCCC(=O)Oc1c(C/C=C(\C)CCC(=O)OC)c(OC)c(C)c2c1C(=O)OC2 (centres unmarked) [I-16, MPA-(O—C10bMe-2-TG)-OMe]",A (greater than 10% (>10%))
2,CCCCCCCCCCCCCCCC(=O)OCC(COC(=O)CCCCCCCCCCCCCCC)OC(=O)CCC(=O)Oc1c(C/C=C(\C)CCC(=O)OC)c(OC)c(C)c2c1C(=O)OC2 [I-17],C (less than 1% and greater than 0.24% (<1% and >0.24%))
3,CCCCCCCCCCCCCCCC(=O)OCC(COC(=O)CCCCCCCCCCCCCCC)OC(=O)CCCCC(=O)Oc1c(C/C=C(\C)CCC(=O)OC)c(OC)c(C)c2c1C(=O)OC2 [I-18],B (between 1% and 10% (1%-10%))
4,"CCCCCCCCCCCCCCCC(=O)OCC(COC(=O)CCCCCCCCCCCCCCC)OC(=O)CC(C)CCCCCCCC(C)C(=O)OCOC(=O)Oc1c(C/C=C(\C)CCC(=O)OC)c(OC)c(C)c2c1C(=O)OC2 (centres unmarked) [I-21, (E)-12-(1,3-Bis(palmitoyloxy)propan-2-yl) 1-(((((6-methoxy-5-(6-methoxy-3-methyl-6-oxohex-2-en-1-yl)-7-methyl-3-oxo-1,3-dihydroisobenzofuran-4-yl)oxy)carbonyl)oxy)methyl) 2,10-dimethyldodecanedioate]",B (between 1% and 10% (1%-10%))
5,"CCCCCCCCCCCCCCCC(=O)OCC(COC(=O)CCCCCCCCCCCCCCC)OCCCCOC(=O)CC/C(C)=C/Cc1c(O)c2c(c(C)c1OC)COC2=O [I-25, (E)-2-(4-((6-(4-hydroxy-6-methoxy-7-methyl-3-oxo-1,3-dihydroisobenzofuran-5-yl)-4-methylhex-4-enoyl)oxy)butoxy)propane-1,3-diyl dipalmitate]",C (less than 1% and greater than 0.24% (<1% and >0.24%))
6,"CCCCCCCCCCCCCCCC(=O)OCC(COC(=O)CCCCCCCCCCCCCCC)OCCCCCCOC(=O)CC/C(C)=C/Cc1c(O)c2c(c(C)c1OC)COC2=O [I-26, (E)-2-((6-((6-(4-hydroxy-6-methoxy-7-methyl-3-oxo-1,3-dihydroisobenzofuran-5-yl)-4-methylhex-4-enoyl)oxy)hexyl)oxy)propane-1,3-diyl dipalmitate]",C (less than 1% and greater than 0.24% (<1% and >0.24%))
7,"CCCCCCCCCCCCCCCC(=O)OCC(COC(=O)CCCCCCCCCCCCCCC)OC(=O)OCCCOC(=O)CC/C(C)=C/Cc1c(O)c2c(c(C)c1OC)COC2=O [I-27, (E)-2-(((3-((6-(4-hydroxy-6-methoxy-7-methyl-3-oxo-1,3-dihydroisobenzofuran-5-yl)-4-methylhex-4-enoyl)oxy)propoxy)carbonyl)oxy)propane-1,3-diyl dipalmitate]",B (between 1% and 10% (1%-10%))
8,"CCCCCCCCCCCCCCCC(=O)OCC(COC(=O)CCCCCCCCCCCCCCC)OC(=O)CCc1ccc(OC(=O)CC/C(C)=C/Cc2c(O)c3c(c(C)c2OC)COC3=O)cc1 [I-28, (E)-2-((3-(4-((6-(4-hydroxy-6-methoxy-7-methyl-3-oxo-1,3-dihydroisobenzofuran-5-yl)-4-methylhex-4-enoyl)oxy)phenyl)propanoyl)oxy)propane-1,3-diyl dipalmitate]",B (between 1% and 10% (1%-10%))
9,"CCCCCCCCCCCCCCCC(=O)OCC(COC(=O)CCCCCCCCCCCCCCC)OC(=O)CCCCCCCCCCC(=O)Oc1c(C/C=C(\C)CCC(=O)OC)c(OC)c(C)c2c1C(=O)OC2 [I-30, (E)-1-(1,3-bis(palmitoyloxy)propan-2-yl) 12-(6-methoxy-5-(6-methoxy-3-methyl-6-oxohex-2-en-1-yl)-7-methyl-3-oxo-1,3-dihydroisobenzofuran-4-yl) dodecanedioate]",A (greater than 10% (>10%))
10,"CCCCCCCCCCCCCCCC(=O)OCC(COC(=O)CCCCCCCCCCCCCCC)OC(=O)CC(C)CCCCCCCCCCCC(=O)Oc1c(C/C=C(\C)CCC(=O)OC)c(OC)c(C)c2c1C(=O)OC2 (centres unmarked) [I-31, (E)-1-(1,3-bis(palmitoyloxy)propan-2-yl) 15-(6-methoxy-5-(6-methoxy-3-methyl-6-oxohex-2-en-1-yl)-7-methyl-3-oxo-1,3-dihydroisobenzofuran-4-yl) 3-methylpentadecanedioate]",A (greater than 10% (>10%))
11,"CCCCCCCCCCCCCCCC(=O)OCC(COC(=O)CCCCCCCCCCCCCCC)OC(=O)CC(C)CCCCCCCC(C)C(=O)Oc1c(C/C=C(\C)CCC(=O)OCCN2CCOCC2)c(OC)c(C)c2c1C(=O)OC2 (centres unmarked) [I-32, (E)-12-(1,3-bis(palmitoyloxy)propan-2-yl) 1-(6-methoxy-7-methyl-5-(3-methyl-6-(2-morpholinoethoxy)-6-oxohex-2-en-1-yl)-3-oxo-1,3-dihydroisobenzofuran-4-yl) 2,10-dimethyldodecanedioate]",A (greater than 10% (>10%))
12,"CCCCCCCCCCCCCCCC(=O)OCC(COC(=O)CCCCCCCCCCCCCCC)OC(=O)CCCCCCOC(=O)CC/C(C)=C/Cc1c(O)c2c(c(C)c1OC)COC2=O [I-36, (E)-2-((7-((6-(4-hydroxy-6-methoxy-7-methyl-3-oxo-1,3-dihydroisobenzofuran-5-yl)-4-methylhex-4-enoyl)oxy)heptanoyl)oxy)propane-1,3-diyl dipalmitate]",B (between 1% and 10% (1%-10%))
13,CCCCCCCCCCCCCCCC(=O)OCC(COP(=O)(O)OCC[N+](C)(C)C)OC(=O)CC/C(C)=C/Cc1c(O)c2c(c(C)c1OC)COC2=O (centres unmarked) [I-39],C (less than 1% and greater than 0.24% (<1% and >0.24%))

# More lines, now with the values ahead:
row,"Cumulative lymphatic transport % dose (Mean ± SD, or Range if n = 2)",SMILES
1,A (greater than 10% (>10%)),CCCCCCCCCCCCCCCC(=O)OCC(COC(=O)CCCCCCCCCCCCCCC)OC(=O)C(C)CCCCCCCCC(C)C(=O)OCOc1c(C/C=C(\C)CCC(=O)OC)c(OC)c(C)c2c1C(=O)OC2 (centres unmarked) [I-41]
2,A (greater than 10% (>10%)),CCCC(=O)OCC(COC(=O)CCC)OC(=O)CC(C)CCCCCCCCCCCCOC(=O)CC/C(C)=C/Cc1c(O)c2c(c(C)c1OC)COC2=O (centres unmarked) [I-43]
3,A (greater than 10% (>10%)),CCCCCCCCCCCCCCCC(=O)OCC(COC(=O)CCCCCCCCCCCCCCC)OC(=O)CC(C)CCCCCCCC(C)C(=O)OCOc1c(C/C=C(\C)CCC(=O)OC)c(OC)c(C)c2c1C(=O)OC2 (centres unmarked) [I-44]
4,A (greater than 10% (>10%)),CCCCCCCCCCCCCCCC(=O)OCC(COC(=O)CCCCCCCCCCCCCCC)OC(=O)C(C)CCCCCCCC(=O)Oc1c(C/C=C(\C)CCC(=O)OC)c(OC)c(C)c2c1C(=O)OC2 (centres unmarked) [I-45]
5,A (greater than 10% (>10%)),CCCCCCCCCCCCCCCC(=O)OCC(COC(=O)CCCCCCCCCCCCCCC)OC(=O)CCCCCCCCCOC(=O)CC/C(C)=C/Cc1c(O)c2c(c(C)c1OC)COC2=O [I-46]
